Source: patent US11950594B2, “Methods and compositions for inhibiting formation of biofilms” (INSTITUTE OF MICROBIOLOGY, CHINESE ACADEMY OF SCIENCES, priority 2019, dated 2024)

What was measured:
pslA::lacZ = pslA::lacZ transcription fusion (β-galactosidase activity); assay type: cell-based, Pseudomonas aeruginosa; settings: FIG. 5
Procedure: 1% inoculation amount of overnight cultured Pseudomonas aeruginosa (pslA::lacZ mutant strain) were respectively inoculated in Jensen media with and without coumarin-chalcone compounds C1-C12, and incubated at 37° C. until OD600 reached to 0.5. Bacteria from 1.5 ml culture aliquots were resuspended in 200 μl Z-buffer and frozen/thawed three times to lyses bacteria. Cell lysates were assayed for both β-galactosidase activities as well as for total proteins by BCA assay (Pierce, USA). All β-galactosidase activity units were normalized by total protein per ml aliquot.
The units of β-galactosidase activity may be determined according to Equation (1) as follows: Miller units=1000×(OD420−1.7×OD550)/(t×V×OD600) (1) where t denotes a time (unit: min), V denotes the volume (unit: mL).
About 500 bp of DNA fragments upstream of ATG start codon of pslA gene were cloned into a polyclonal site of mini-CTX lacZ vector (note that the selected promoter fragment cannot affect the frameshift mutation). A recombinant plasmid (e.g., pTH2) was transferred into Escherichia coli S17-1λ pir. Then activated PAO1 was inoculated into 5 mL of LBNS medium, and S17-1/pTH2 strain was inoculated into 5 mL of LB medium with tetracycline (Tet) ([…]), and both cultured overnight at 37° C. with 200 rpm. […]

[1] = Stability at different pH, UV-Vis spectral analysis; assay type: physicochemical; settings: UV absorption, pH range of 3.4 to 8.4
Procedure: UV-Vis spectral analysis was used to study the stability of the coumarin-chalcone compound C9 at a pH range of 3.4 to 8.4. […] After reaching pH=2, KOH (25 mM) was added slowly until the pH reached 12. In this way, a graph of a relationship between the pH and the volume of KOH added was plotted to find an equivalent point and thus the pKa.
In the embodiment, the stability of the coumarin-chalcone compound C9 was studied. FIGS. 10A to 10C are schematic diagrams illustrating the stability of a coumarin-chalcone compound C9. […] The UV absorption spectroscopy in the pH range of 3.4 to 8.4 further supported the stability of the coumarin-chalcone compound C9. First, HCl (25 mM) was continually added to the coumarin-chalcone compound C9 (initial pH=6.9) until the pH reached 3.4 (FIG. 10B), resulting in an increase in the strength of an absorption band at 330 nm. […] The stability of the coumarin-chalcone compound C9 indicated a great potential to be an anti-QS and anti-biofilm drug.

[2] = test system: Pseudomonas aeruginosa PAO1 biofilm; assay: Biofilm assay (96-well PVC plate, crystal violet); assay type: cell-based
Procedure: 1% inoculation amount of the bacterial solution cultured overnight was inoculated into 100 μL Jensen liquid medium. Different equal amounts of bacteria solution with C1 to C12, respectively, or without any additional substance were cultured in a 96-well polyvinyl chloride (PVC) plate (costar) overnight at 30° C. without agitation.
The bacterial biomass adsorbed on the 96-well PVC plate was detected by a crystal violet method, and steps were described as below. (1) The non-attached bacteria were removed using a pipettor, then the wells were gently rinsed with normal saline for 3 times. (2) A volume of 120 μL 0.1% crystal violet solution was added to stain the firmly attached bacterial cells in each well, which then staying static at room temperature for 30 min. (3) The PVC plate was taken out, the crystal violet solution was removed with a pipettor, and the non-attached crystal violet solution was washed with normal saline. (4) The crystal violet attached onto the PVC plate was dissolved with 200 μL of 30% acetic acid solution. The OD value of the acetic acid solution in each well was measured at 560 nm with a spectrophotometer.

COc1cccc(/C=C/C(=O)c2cc3ccccc3oc2=O)c1 [Compound C9]
production of Psl at the transcription level (pslA::lacZ) (pslA::lacZ): affected the production of Psl at the transcription level | stability at different pH conditions [1]: stable at different pH conditions | formation of Pseudomonas aeruginosa biofilm ([2]; C9 in a range of 1 mM to 5 mM): significantly inhibited | reduction of the contents of Pseudomonas aeruginosa PAO1 biofilm ([2]; FIG. 1, overnight at 30° C., Jensen medium): 70% | inhibition at 5000 µM ([2]; Pseudomonas aeruginosa, PAO1, concentration of C9 5 mM, read-out: inhibition rate of biofilm): 70%
